# Laboratory results taken from US9969761B2, “Stabilisation of radiopharmaceutical precursors” (GE HEALTHCARE LIMITED, priority 2004, dated 2018).
# Several values for one entry are separate records, joined by “and”; a condition that tells them apart may be missing. Equal values may be shown once.
# Key:
# [1] = Radiolabelling with 18F- in a glassy carbon reactor after storage (pFDG RCP), Examples 1 and 2; assay type: physicochemical; details: storage time 0 weeks, MT 20 mg in 1.6 ml acetonitrile
# Experimental: (§1) Filled and capped units are kept in storage at 25° C. and 50° C. in thermally controlled cabinets for set periods of time at which “pull points” a vial was removed from storage and subjected to the testing outlined below.
# Radioactive methods (hot) performed: Radiolabelling with ^18F^− in a glassy carbon reactor (all pull points). Each dry sample of mannose triflate (20 mg) is dissolved in dry acetonitrile (1.6 ml). For the mannose triflate stored in acetonitrile, an aliquot (3.3 ml) was removed and diluted to 4.0 ml with acetonitrile and 1.6 ml of this solution was used in the radiolabelling test. For the samples taken after 2 weeks storage at 50° C., a 1.6 ml sample of the mannose triflate solution was used directly without further dilution. In all cases, the radiolabelling was performed after drying an ^18F solution of Kryptofix 2.2.2 (19.4 mg), potassium carbonate (41.0 mg), acetonitrile (0.32 ml) and water (0.04 ml) for 4 minutes at 80° C. before adding the test solution of mannose triflate in acetonitrile. The labelling reaction was carried out at 80° C. for 4 minutes in a glassy carbon reactor. […]
# Using similar method to Example 1, the stability of mannose triflate in acetonitrile with water at level of approximately 725, 1450, and 2500 ppm was evaluated. […]
# IR of stored dry powder = assay type: physicochemical; details: 2 weeks storage at 50° C.
# [2] = Comparative example: radiolabelling of stored dry powder mannose triflate, RCP by ITLC; assay type: physicochemical; details: for % RCP: dry powder
# Experimental: Dry powder mannose triflate was stored in vials at different temperatures and for different time periods.
# A solution of potassium carbonate (41 mg of potassium carbonate in 40 μl water) was added to a glassy carbon reactor and then a solution of kryptofix 222 (19.4 mg in 320 μl) was added separately. Then a solution of 18-fluoride in water (0.05 ml) was added and the solution dried by heating to 80° C. for 4 mins with a flow of dry nitrogen (at 0.3 liters/min). A solution of 1,3,4,6-tetra-O-acetyl-2-O-trifluoromethanesulfonyl-β-D-mannopyranose (20 mg in 1.6 ml dry acetonitrile) was then added and the reaction heated for a further 4 minutes at 80° C. The reaction was then cooled to 50° C. and a sample removed for analysis by ITLC (Instant thin layer chromatography) on TLC aluminium sheets silica gel 60 F254 eluting with 95% acetonitrile, 5% water. The radiochemical purity was calculated from the ratio of 1,3,4,6-tetra-O-acetyl-2-fluoro-β-D-mannopyranose to the total of the sugar and free fluoride (the sole two components from the reaction).
# [3] = Appearance/organoleptic test after storage; assay type: physicochemical; details: dry powder; 2 weeks storage at 50° C.
# Experimental: as §1
# (§2) Non-radioactive methods (cold) performed: • Appearance/organoleptic test, all pull points • Purity by HPLC-UV, all pull points • ^19F-NMR, all pull points • Water content analysis, at time zero.
# [4] = dry powder at 5° C.; cited from earlier work
# [5] = Purity by HPLC-UV after storage; assay type: physicochemical; details: dry powder; 2 weeks storage at 50° C.
# Experimental: as §1, §2
# HPLC Method: octadecylsilyl silica gel (5 μm) column (Hichrom Nucleosil 100-5C18), temperature 25° C.; injection volume 20 μl; mobile phase of water: acetonitrile gradient, 1 ml/min. Detection by spectrophotometer at 220 nm.
# HPLC-UV traces for the solid mannose triflate control experiment and the acetonitrile solution of mannose triflate are shown in FIGS. 1 and 2 respectively. Mannose triflate elutes at 32.5 minutes.
compound,measurement,setting,value
"CC(=O)OC[C@H]1O[C@@H](OC(C)=O)[C@@H](OS(=O)(=O)C(F)(F)F)[C@@H](OC(C)=O)[C@@H]1OC(C)=O [mannose triflate, 1,3,4,6-tetra-O-acetyl-2-O-trifluoromethanesulfonyl-β-D-mannopyranose]",pFDG RCP %,[1]; listed as Control (N2),82% and 93%
same,pFDG RCP %,[1]; listed as Control (air),87% and 86%
same,IR identity,IR of stored dry powder,no longer mannose triflate
same,% RCP,"[2]; 0 days under air, listed as Dry powder mannose triflate",87% and 86%
same,% RCP,"[2]; 1 day @ room temperature under dry N2, listed as Dry powder mannose triflate",82% and 93%
same,% RCP,[2]; 5 days @ 50° C. under air,5%
same,% RCP,[2]; 127 days @ 25° C. under air,1%
same,stability of dry powder (conclusion from RCP data),"[2]; room temperature, much worse at 50° C.",significant instability
same,Appearance/organoleptic,[3],black and smelled strongly of acetic acid
same,shelf life,[4],6 months
same,HPLC-UV detection of mannose triflate,[5],no mannose triflate was detected
